Data from US20100272680A1, “Piperidinyl Cyclic Amido Antiviral Agents” (priority 2009, published 2010).

Assays:
[1] = system: HCV Genotype 1B Replicon; experiment: Replicon assay, genotype 1b subgenomic replicon (ET cell line), luciferase readout; type: cell-based; settings: Hepatitis C virus, 48 h, Table 3; luciferase activity after 48 hours
Method: (§1) Compounds were assayed for activity against HCV using the genotype 1a and 1b subgenomic replicon model systems. Stable cell lines bearing the genotype 1a and 1b replicons were used for screening of compounds. Both replicons are bicistonic and contain the firefly luciferase gene. The ET cell line is stably transfected with RNA transcripts harboring a I389luc-ubi-neo/NS3-3′/ET replicon with firefly luciferase-ubiquitin-neomycin phosphotransferase fusion protein and EMCV-IRES driven NS3-5B polyprotein containing the cell culture adaptive mutations (E1202G; T12801; K1846T) (Krieger at al, 2001 and unpublished). The genotype 1a replicon is a stable cell line licensed from Apath LLC, modified to contain the firefly luciferase gene. The cells were grown in DMEM, supplemented with 10% fetal calf serum, 2 mM Glutamine, Penicillin (100 IU/mL)/Streptomycin (100 μg/mL), 1× nonessential amino acids, and 250-500 μg/mL G418 (“Geneticin”). They were all available through Life Technologies (Bethesda, Md.). The cells were plated at 0.5×10^4 cells/well in 384 well plates containing compounds. The final concentration of compounds ranged between 0.03 μM to 50 μm and the final DMSO concentration of 0.5-1%.
(§2) Luciferase activity was measured 48 hours later by adding a Steady glo (Promega, Madison, Wis.). Percent inhibition of replication data was plotted relative to no compound control. Under the same condition, cytotoxicity of the compounds was determined using cell titer glo (Promega, Madison, Wis). IC50s were determined from a 10 point dose response curve using 3-4-fold serial dilution for each compound, which spans a concentration range >1000 fold. BioAssay determines the level of inhibition for each compound by normalizing cross-talk corrected plate values against the negative […] controls to determine Percent Inhibition:
(§3) These normalized values are exported to EC50 where they are plotted against the molar compound concentrations using the standard four parameter logistic equation: […]
(§4) Some EC50 measurements were repeated a second time and for both 1A and 1B genotypes after those reported in Table 2 for compounds 101-108 and the repeated data was reported in Table 3.

[2] = system: HCV Genotype 1A Replicon; experiment: Replicon assay, genotype 1a subgenomic replicon, luciferase readout; type: cell-based; settings: Hepatitis C virus, 48 h, Table 3; luciferase activity after 48 hours
Method: as §1, §2, §3, §4

SMILES	EC50 [1]	EC50 [2]
O=C(c1nc2c(C(F)(F)F)cc(C3CCOC3)cn2c1Cl)N1CCC(N2CCOC2=O)CC1 (centres unmarked) [Compound 137, 3-(1-{[3-chloro-6-(tetrahydro-3-furanyl)-8-(trifluoromethyl)imidazo[1,2-a]pyridin-2-yl]carbonyl}-4-piperidinyl)-1,3-oxazolidin-2-one]	1.27 µM	0.31 µM
CC(C)Oc1cc(C(F)(F)F)c2nc(C(=O)N3CCC(N4CCOC4=O)CC3)c(Cl)n2c1 [Compound 138, 3-(1-{[3-chloro-6-[(1-methylethyl)oxy]-8-(trifluoromethyl)imidazo[1,2-a]pyridin-2-yl]carbonyl}-4-piperidinyl)-1,3-oxazolidin-2-one]	0.42 µM	0.28 µM
O=C(c1nc2c(C(F)(F)F)cc(-n3ccnc3)cn2c1Cl)N1CCC(N2CCOC2=O)CC1 [Compound 139, 3-(1-{[3-chloro-6-(1H-imidazol-1-yl)-8-(trifluoromethyl)imidazo[1,2-a]pyridin-2-yl]carbonyl}-4-piperidinyl)-1,3-oxazolidin-2-one]	≥ 5.01 µM	2.66 µM
CC(C)Cc1cc(C(F)(F)F)c2nc(C(=O)N3CCC(N4C(=O)COC4=O)CC3)c(Cl)n2c1 [Compound 140, 3-(1-{[3-chloro-6-(2-methylpropyl)-8-(trifluoromethyl)imidazo[1,2-a]pyridin-2-yl]carbonyl}-4-piperidinyl)-1,3-oxazolidine-2,4-dione]	0.15 µM	0.05 µM
CCC(C)c1cc(C(F)(F)F)c2nc(C(=O)N3CCC(N4CCOC4=O)CC3)c(Cl)n2c1 (centres unmarked) [Compound 141, 3-(1-{[3-chloro-6-(1-methylpropyl)-8-(trifluoromethyl)imidazo[1,2-a]pyridin-2-yl]carbonyl}-4-piperidinyl)-1,3-oxazolidin-2-one]	0.55 µM	0.16 µM
O=C(c1nc2c(C(F)(F)F)cc(Br)cn2c1Cl)N1CCC(N2C(=O)COC2=O)CC1 [Compound 142, 3-(1-{[6-bromo-3-chloro-8-(trifluoromethyl)imidazo[1,2-a]pyridin-2-yl]carbonyl}-4-piperidinyl)-1,3-oxazolidine-2,4-dione]	0.07 µM	0.07 µM
O=C(c1nc2c(C(F)(F)F)cc(Br)cn2c1Cl)N1CCC(N2CCCC2=O)CC1 [Compound 143, 1-(1-{[6-bromo-3-chloro-8-(trifluoromethyl)imidazo[1,2-a]pyridin-2-yl]carbonyl}-4-piperidinyl)-2-pyrrolidinone]	0.2 µM	0.48 µM
O=C(c1nc2c(C(F)(F)F)cc(OC(F)F)cn2c1Cl)N1CCC(N2CCOC2=O)CC1 [Compound 144, 3-(1-{[3-chloro-6-[(difluoromethyl)oxy]-8-(trifluoromethyl)imidazo[1,2-a]pyridin-2-yl]carbonyl}-4-piperidinyl)-1,3-oxazolidin-2-one]	0.05 µM	0.02 µM
O=C(c1nc2c(C(F)(F)F)cc(OC(F)F)cn2c1Cl)N1CCC(N2C(=O)COC2=O)CC1 [Compound 145, 3-(1-{[3-chloro-6-[(difluoromethyl)oxy]-8-(trifluoromethyl)imidazo[1,2-a]pyridin-2-yl]carbonyl}-4-piperidinyl)-1,3-oxazolidine-2,4-dione]	0.05 µM	0.05 µM
O=C(c1nc2c(C(F)(F)F)cc(-c3ccco3)cn2c1Cl)N1CCC(N2CCOC2=O)CC1 [Compound 146, 3-(1-{[3-chloro-6-(2-furanyl)-8-(trifluoromethyl)imidazo[1,2-a]pyridin-2-yl]carbonyl}-4-piperidinyl)-1,3-oxazolidin-2-one]	0.03 µM	0.02 µM
O=C(c1nc2c(C(F)(F)F)cc(-c3cc[nH]c3)cn2c1Cl)N1CCC(N2CCOC2=O)CC1 [Compound 147, 3-(1-{[3-chloro-6-(1H-pyrrol-3-yl)-8-(trifluoromethyl)imidazo[1,2-a]pyridin-2-yl]carbonyl}-4-piperidinyl)-1,3-oxazolidin-2-one]	0.02 µM	0.02 µM
O=C(c1nc2c(C(F)(F)F)cc(-c3cn[nH]n3)cn2c1Cl)N1CCC(N2CCOC2=O)CC1 [Compound 148, 3-(1-{[3-chloro-6-(2H-1,2,3-triazol-4-yl)-8-(trifluoromethyl)imidazo[1,2-a]pyridin-2-yl]carbonyl}-4-piperidinyl)-1,3-oxazolidin-2-one]	0.54 µM	0.22 µM
O=C(c1nc2c(C(F)(F)F)cc(-c3ncc[nH]3)cn2c1Cl)N1CCC(N2CCOC2=O)CC1 [Compound 149, 3-(1-{[3-chloro-6-(1H-imidazol-2-yl)-8-(trifluoromethyl)imidazo[1,2-a]pyridin-2-yl]carbonyl}-4-piperidinyl)-1,3-oxazolidin-2-one]	0.08 µM	2.25 µM
O=C(c1nc2c(C(F)(F)F)cc(-c3ccc[nH]3)cn2c1Cl)N1CCC(N2CCOC2=O)CC1 [Compound 150, 3-(1-{[3-chloro-6-(1H-pyrrol-2-yl)-8-(trifluoromethyl)imidazo[1,2-a]pyridin-2-yl]carbonyl}-4-piperidinyl)-1,3-oxazolidin-2-one]	0.45 µM	0.23 µM
Cc1cc(C(F)(F)F)c2nc(C(=O)N3CCC(N4CCOC4=O)CC3)c(Cl)n2c1 [Compound 151, 3-(1-{[3-chloro-6-methyl-8-(trifluoromethyl)imidazo[1,2-a]pyridin-2-yl]carbonyl}-4-piperidinyl)-1,3-oxazolidin-2-one]	0.5 µM	0.65 µM
CCc1cc(C(F)(F)F)c2nc(C(=O)N3CCC(N4CCOC4=O)CC3)c(Cl)n2c1 [Compound 152, 3-(1-{[3-chloro-6-ethyl-8-(trifluoromethyl)imidazo[1,2-a]pyridin-2-yl]carbonyl}-4-piperidinyl)-1,3-oxazolidin-2-one]	0.07 µM	0.05 µM
C=Cc1cc(C(F)(F)F)c2nc(C(=O)N3CCC(N4CCOC4=O)CC3)c(Cl)n2c1 [Compound 153, 3-(1-{[3-chloro-6-ethenyl-8-(trifluoromethyl)imidazo[1,2-a]pyridin-2-yl]carbonyl}-4-piperidinyl)-1,3-oxazolidin-2-one]	0.07 µM	0.08 µM
CC(C)c1cc(C(F)(F)F)c2nc(C(=O)N3CCC(N4CCOC4=O)CC3)c(Cl)n2c1 [Compound 154, 3-(1-{[3-chloro-6-(1-methylethyl)-8-(trifluoromethyl)imidazo[1,2-a]pyridin-2-yl]carbonyl}-4-piperidinyl)-1,3-oxazolidin-2-one]	0.02 µM	0.02 µM
CC(O)c1cc(C(F)(F)F)c2nc(C(=O)N3CCC(N4CCOC4=O)CC3)c(Cl)n2c1 (centres unmarked) [Compound 155, 3-(1-{[3-chloro-6-(1-hydroxyethyl)-8-(trifluoromethyl)imidazo[1,2-a]pyridin-2-yl]carbonyl}-4-piperidinyl)-1,3-oxazolidin-2-one]	1.08 µM	0.63 µM
O=C(c1nc2c(C(F)(F)F)cc(C3CC3)cn2c1Cl)N1CCC(N2CCOC2=O)CC1 [Compound 156, 3-(1-{[3-chloro-6-cyclopropyl-8-(trifluoromethyl)imidazo[1,2-a]pyridin-2-yl]carbonyl}-4-piperidinyl)-1,3-oxazolidin-2-one]	0.01 µM	0.01 µM
O=C(c1nc2c(C(F)(F)F)cc(C(F)F)cn2c1Cl)N1CCC(N2CCOC2=O)CC1 [Compound 157, 3-(1-{[3-chloro-6-(difluoromethyl)-8-(trifluoromethyl)imidazo[1,2-a]pyridin-2-yl]carbonyl}-4-piperidinyl)-1,3-oxazolidin-2-one]	0.15 µM	0.02 µM
O=C(c1nc2c(C(F)(F)F)cc(-c3ccoc3)cn2c1Br)N1CCC(N2CCOC2=O)CC1 [Compound 158, 3-(1-{[3-bromo-6-(3-furanyl)-8-(trifluoromethyl)imidazo[1,2-a]pyridin-2-yl]carbonyl}-4-piperidinyl)-1,3-oxazolidin-2-one]	0.04 µM	0.01 µM
O=C(c1nc2c(C(F)(F)F)cc(-c3ccoc3)cn2c1Br)N1CCC(N2C(=O)COC2=O)CC1 [Compound 159, 3-(1-{[3-bromo-6-(3-furanyl)-8-(trifluoromethyl)imidazo[1,2-a]pyridin-2-yl]carbonyl}-4-piperidinyl)-1,3-oxazolidine-2,4-dione]	0.03 µM	0.03 µM
N#Cc1c(C(=O)N2CCC(N3CCOC3=O)CC2)nc2c(C(F)(F)F)cc(-c3ccoc3)cn12 [Compound 160, 6-(3-furanyl)-2-{[4-(2-oxo-1,3-oxazolidin-3-yl)-1-piperidinyl]carbonyl}-8-(trifluoromethyl)imidazo[1,2-a]pyridine-3-carbonitrile]	0.01 µM	0.01 µM
N#Cc1c(C(=O)N2CCC(N3C(=O)COC3=O)CC2)nc2c(C(F)(F)F)cc(-c3ccoc3)cn12 [Compound 161, 2-{[4-(2,4-dioxo-1,3-oxazolidin-3-yl)-1-piperidinyl]carbonyl}-6-(3-furanyl)-8-(trifluoromethyl)imidazo[1,2-a]pyridine-3-carbonitrile]	0.03 µM	0.03 µM
